{"source": "patent US12677825B2", "about": "“Composition for protecting islet transplantation” (LG CHEM, LTD., priority 2020, dated 2026)", "assay_type_in_all_cases": "cell-based, mouse", "key": {"[1]": {"tested_on": "islets from hIAPP+/− FVB/N mice", "experiment": "Alamar blue viability of islets isolated with or without Compound 1", "details": "20 μM Compound 1 during islet isolation, vs non-treated group; FIG. 1A", "experimental": "(§1) Mouse islets were isolated from 10- to 12-week-old hIAPP^+/− and C57BL/6 mice as described previously. Briefly, 0.8 mg/mL of collagenase P (Roche, Indianapolis, IN, USA) in Hank's buffered saline solution (HBSS, Sigma-Aldrich, St. Louis, MO, USA) with or without 20 μM Compound 1 were infused into the common bile duct for mouse pancreas digestion. Islets were purified from the digested pancreas using a Ficoll (Biochrom, Berlin, Germany) gradient and washed several times with 1 xHBSS. Isolated islets were cultured while free-floating in 10 mL of RPMI 1640 (Gibco, Grand Island, NY, USA). The medium was supplemented with 10% heat-inactivated FBS (fetal bovine serum) at 37° C. and 5% CO2 incubation prior to the ex vivo and in vivo studies.\nThe viability of islets was evaluated using Alamar blue staining according to the manufacturer's protocol (Invitrogen, Grand Island, NY, USA). Briefly, islets isolated from hIAPP^+/− mice were cultured at a density of 100 islet equivalents (IE) per well in 24-well plates with RPMI 1640 containing 10% FBS and 0.625% BSA with or without Compound 1. […] The fluorescence intensity of each well was measured at 570/585 nm (excitation/emission) using a GloMax-Multi Plus Detection System (Promega, Fitchburg, WI, USA), and the values were normalized to a blank."}, "[2]": {"tested_on": "islets from hIAPP+/− FVB/N mice", "experiment": "Intracellular free radical detection and lipid peroxidation after islet isolation", "details": "20 μM Compound 1 during islet isolation, vs control islets", "experimental": "as §1\nThe oxidative stress levels in hIAPP^+/− mouse islets were determined right after islet isolation and after ex vivo culture of isolated islets. The oxidative stress of the islets was quantified using a fluorescence-based intracellular ROS detection method and by estimating the concentration of malondialdehyde (MDA), a by-product of lipid peroxidation. The formation of total ROS, superoxide ion and nitric oxide was determined using a reactive oxygen species detection kit (ENZ-51011, Enzo Life Sciences, Farmingdale, New York, USA). The ROS content was measured by levels of DHR123 fluorescence. The kit was applied according to the manufacturer's protocol."}, "[3]": {"tested_on": "c-Jun N-terminal kinases, HMGB1, IL-1β, IL-6, TNF-α", "experiment": "Real-time qRT-PCR of c-Jun, HMGB1 and proinflammatory cytokines after islet isolation", "details": "after isolation with 20 μM Compound 1, vs non-treated group; FIG. 1F", "experimental": "as §1, with “The medium was supplemented with 10% heat-inactivated FBS (fetal bovine serum) at 37° C. and 5% CO2 incubation prior to the ex vivo and in vivo studies.” left out\n(§2) Harvested islets were treated with 500 μL Trizol (Life Technologies, Grand Island, NY, USA), and then 100 μL of chloroform was added. […] RNA purity was assessed by NanoDrop (Thermo Scientific, Wilmington, DE, USA) and agarose gel electrophoresis. […] Total RNA was reverse transcribed to quantify the expression of genes using the SuperScript™ II reverse transcription system (Life Technologies) according to the manufacturer's protocol.\n(§3) Real-time qRT-PCR was performed using gene-specific primer pairs (Table 1). […] To quantify the expression level of genes, real-time PCR was performed using a SYBR premix kit (Takara Bio Inc., Tokyo, Japan) and an ABI Prism 7000 (Applied Biosystems, Foster City, CA, USA) according to the manufacturers' protocols."}, "[4]": {"tested_on": "TNF-α, IL-1β, IL-6, c-JUN and HMGB1", "experiment": "Real-time qRT-PCR transcript levels during serum-deprived ex vivo culture", "details": "after 1 and 3 days of ex vivo culture, BSA+Compound 1 vs BSA group; FIGS. 6C, 6D", "experimental": "Purified hIAPP^+/− FVB/N and C57BL/6J mouse were suspended in RPMI 1640 (Gibco, Grand Island, NY, USA) containing 100 IU/mL penicillin and 100 μg/mL streptomycin, and cultured at 37° C. in a fully humidified 5% CO2 atmosphere. Purified NHP islets were suspended in CMRL 1066 medium (Coming Life Sciences, Tewksbury, MA; catalog number 99-663-CV) containing 100 IU/mL penicillin and 100 μg/mL streptomycin, and cultured at 37° C. in a fully humidified 5% CO2 atmosphere. […]\nas §2, §3"}, "[5]": {"tested_on": "hIAPP oligomers in hIAPP+/− islets", "experiment": "hIAPP oligomer accumulation (A11 antibody staining) after serum-deprived culture", "details": "72 hours serum-deprived culture, BSA+Compound 1 vs BSA group; FIG. 6F", "experimental": "Purified hIAPP^+/− FVB/N and C57BL/6J mouse were suspended in RPMI 1640 (Gibco, Grand Island, NY, USA) containing 100 IU/mL penicillin and 100 μg/mL streptomycin, and cultured at 37° C. in a fully humidified 5% CO2 atmosphere. Purified NHP islets were suspended in CMRL 1066 medium (Coming Life Sciences, Tewksbury, MA; catalog number 99-663-CV) containing 100 IU/mL penicillin and 100 μg/mL streptomycin, and cultured at 37° C. in a fully humidified 5% CO2 atmosphere. During the ex vivo culture of murine islets, three experimental groups were designated for experiments using hIAPP^+/− FVB/N and C57BL/6J mice islets: medium supplemented with 10% FBS (Tissue Culture Biologicals, Los Alamitos, CA, USA; catalog number 101; FBS group), medium supplemented with 0.625% bovine serum albumin (Qbiogene, Carlsbad, CA, USA; catalog number BSA003; BSA group), and medium supplemented with 0, 0.1, 1, 10 and 20 μM Compoun 1 plus 0.625% BSA (BSA+Compound 1 group). […]\nAccumulation of hIAPP oligomers was evaluated using sections of hIAPP^+/− mice islets stained with A11 Ab (anti-oligomer antibody, Invitrogen) and insulin antibody (Dako). […] To quantify accumulation of hIAPP oligomers per islet, the proportion of A11-stained cells among total DAPI+islet cells was determined using confocal microscopy."}}, "data": [{"smiles": "O=S1(=O)CCN(Cc2cc(NC3CCOCC3)c3[nH]c(-c4ccccc4)cc3c2)CC1", "note": "[Compound 1]", "values": [{"measurement": "relative ex vivo cell viability assessed by Alamar blue assay", "setting": "[1]", "result": "significantly increased"}, {"measurement": "ROS contents in islets", "setting": "[2]; FIG. 1C", "result": "markedly decreased"}, {"measurement": "oxidative stress levels in islets", "setting": "[2]; FIG. 1D", "result": "markedly decreased"}, {"measurement": "transcriptional expression of c-Jun N-terminal kinases, HMGB1, IL-1β, IL-6 and TNF-α", "setting": "[3]", "result": "significantly decreased"}, {"measurement": "transcript levels of TNF-α, IL-1β, IL-6, c-JUN and HMGB1", "setting": "[4]", "result": "significantly attenuated"}, {"measurement": "proportion of accumulation of hIAPP oligomers", "setting": "[5]", "result": "significantly decreased"}]}]}
